Source: patent US20240317746A1, “CRYSTALLINE FORMS OF AN AZETIDINE PARP1 INHIBITOR” (XinThera, Inc., priority 2023, published 2024)
In brackets after ≈: the same amount, converted by molar mass. Several values for one entry are separate records, joined by “and”; a condition that tells them apart may be missing. Equal entries are not always repeated. Entries after “also recorded” stand apart in the source; their conditions may differ. Structures can show the parent of a compound that is named as a salt.

Legend:
Format in all cases: physicochemical
[1] = Exposure of solid to air at about 38% RH and 22° C.; conditions: exposed to air at about 38% RH and 22° C.
Experimental: 6 g of Compound 1 Form I, about 99 wt % purity, was dissolved in a mixture of about 96 g of DCM and about 20 g MeOH at about 32° C. The solution was polish filtered and then the vessel was rinsed forward with a mixture of about 20 g of DCM and about 3.6 g of MeOH. The filtrate was charged with a solution containing about 2.28 g of L-tartaric acid dissolved in about 6 mL of water at about 22° C. A slurry of solids formed after stirring for about 1 day. The slurry was distilled under vacuum to about 3 V (about 20 mL) at about 40° C., and then cooled to about 22° C. It was charged with about 87 g of acetone, held at about 22° C. for about 1 h, and then cooled to about 0° C. After holding for about 4 h, the slurry was filtered, rinsed with about 24 g of pre-cooled acetone twice. The wet cake was dried at 50° C. with full house vacuum under nitrogen sweep for about 4 days to afford about 7.36 g of L-tartrate Form IV (with a small amount of L-tartrate Form I). […] When exposed to air at about 38% RH and 22° C., a small sample of Compound 1 L-tartrate Form IV completely converted to Compound 1 L-tartrate Form III in less than 20 min.

[2] = Mechanical stability of Form I (manual grinding); conditions: ground by pestle and mortar for about 1 minute and 5 minutes
Experimental: Appropriate amount of Form I was manually ground by pestle and mortar for about 1 minute and 5 minutes, respectively. The ground samples were analyzed by XRPD.

[3] = Solubility in bio-relevant media (SGF, FaSSIF, FeSSIF) and water; conditions: for XRPD 0.5 h / XRPD 2 h / XRPD 24 h: filter cake; for Solubility 0.5 h / Solubility 2 h / Solubility 24 h: average n=2
Experimental: At 0.5, 2 and 24 hours, about 0.6 mL of each suspension was filtered, the filtrate was analyzed by HPLC and pH meter, and the filter cake was analyzed by XRPD. The samples were prepared in duplicate (n=2) per condition. Average value (n=2) was presented.
HPLC analysis was performed with an Agilent HPLC 1260 series instrument.

[4] = Stability relationship study (slurry turnover of Form II); conditions: anhydrates Form I vs Form II
Experimental: Form II was prepared via heating starting material to 220° C. in DSC pans. Then, about 15 mg of Form II was stirred in 0.5 mL of selected solvent at desired temperatures for 2 and 5 days. Solid samples were collected by filtration and characterized by XRPD.

[5] = Preliminary solubility test: estimated solubility at RT by visual observation; conditions: organic solvent or mixture, thermodynamic from solid, read-out: Solubility
Experimental: The solubility of Compound 1 (starting material) was estimated at RT in 18 single solvents and 6 solvent mixtures by visual observation. Approximately 5 mg solids were weighed into 8 mL glass vial, and then solvent was added stepwise until solids were dissolved completely or a total of solvent volume reached 5 mL. […] The solubility was estimated and for reference only.

[6] = pH solubility profile of Form I in pH buffers; conditions: for XRPD 4 h / XRPD 24 h: wet cake
Experimental: Different pH buffers (pH 1.0, 3.0, 5.0, 6.8 and 9.0) were prepared by method in Table 18. Appropriate amount of Form I was added into 1.4 mL of different buffers (pH=1.0, 3.0, 5.0, 6.8 and 9.0) to make suspensions. The suspensions were kept shaking with a speed of 1000 rpm at 25° C. for 4 and 24 hours. At each point, the suspensions were centrifuged, and the supernatant was inspected by UPLC/pH, and the wet cakes were analyzed by XRPD. Duplicate samples were prepared.

[7] = DVS test (dynamic vapor sorption, hygroscopicity); conditions: for hygroscopicity (in words): DVS
Experimental: All the three target forms remained no change after DVS test.
Dynamic Vapor Sorption (DVS) was used to study hygroscopicity on Model Q5000 SA (TA Instruments, New Castle, DE). A sample (1-10 mg) was placed in an aluminum pan and loaded on the sample side of the twin pan balance. The water sorption and desorption were studied as a function of relative humidity (RH) at 25° C. in 10% RH increments from 0% RH to 90% RH and then back to 0%. […] Data analysis was performed using Universal Analysis 2000 Version 4.7A (TA Instruments, New Castle, DE).

[8] = Solid-state stability at 60° C. (capped) and 40° C./75% RH (open)
Experimental: (capped) and 40° C./75% RH (open) for 7 days. Duplicate samples were prepared at each condition. The stability sample was dissolved in diluent to prepare solution at ˜1 mg/mL for HPLC purity analysis. Solid samples were analyzed by XRPD to check the crystal form. […] (capped) and 40° C./75% RH (open) for at least 7 days.

[9] = FaSSIF, initial pH 6.45, 37° C.
[10] = FaSSIF, initial pH 6.45, filtrate
[11] = FeSSIF, initial pH 4.99, 37° C.
[12] = FeSSIF, initial pH 4.99, filtrate
[13] = Water, initial pH 5.41, filtrate
[14] = aqueous buffer, thermodynamic from solid, pH 3.0 buffer (25 mM citrate), initial pH 3.01, solid loading 5 mg/mL, 25° C.
[15] = aqueous buffer, thermodynamic from solid, pH 5.0 buffer (25 mM citrate), initial pH 4.95, solid loading 5 mg/mL, 25° C.
[16] = aqueous buffer, thermodynamic from solid, pH 6.8 buffer (25 mM phosphate), initial pH 6.78, solid loading 5 mg/mL, 25° C.
[17] = aqueous buffer, thermodynamic from solid, pH 9.0 buffer (25 mM DEA), initial pH 9.01, solid loading 5 mg/mL, 25° C.
[18] = pH 1.0 buffer, initial pH 1.01, solid loading 60 mg/mL
[19] = pH 3.0 buffer, initial pH 3.01, solid loading 5 mg/mL
[20] = pH 5.0 buffer, initial pH 4.95, solid loading 5 mg/mL
[21] = pH 6.8 buffer, initial pH 6.78, solid loading 5 mg/mL
[22] = pH 9.0 buffer, initial pH 9.01, solid loading 5 mg/mL
[23] = simulated gastric fluid, thermodynamic from solid, pH 1.0 buffer (0.1N HCl), initial pH 1.01, solid loading 60 mg/mL, 25° C.

With C[C@@H]1[C@@H](Oc2ccc(C(=O)NC3CC3)nc2)CN1Cc1cnc2cc(Cl)c(=O)[nH]c2c1 [L-Tartrate Salt Form IV, 5-(((2R,3S)-1-((7-chloro-6-oxo-5,6-dihydro-1,5-naphthyridin-3-yl)methyl)-2-methylazetidin-3-yl)oxy)-N-cyclopropylpicolinamide] the “time to complete conversion to L-tartrate Form III” value [1] was “less than 20 min”.
With C[C@@H]1[C@@H](Oc2ccc(C(=O)NC3CC3)nc2)CN1Cc1cnc2cc(Cl)c(=O)[nH]c2c1 [Freebase Form I, 5-(((2R,3S)-1-((7-chloro-6-oxo-5,6-dihydro-1,5-naphthyridin-3-yl)methyl)-2-methylazetidin-3-yl)oxy)-N-cyclopropylpicolinamide] the “crystal form after grinding (XRPD)” value [2] was “remained unchanged with little crystallinity decrease”, the “XRPD 0.5 h” value ([3]; FaSSIF) was “Unchanged” and the “XRPD 2 h” value ([3]; FaSSIF) was “Unchanged”. For the same molecule, the “XRPD 24 h” value ([3]; FaSSIF) was “Unchanged”, the “Solubility 0.5 h” value [3, 9] was 0.013 mg/mL (≈ 29.6 µM) and the “Solubility 2 h” value [3, 9] was 0.015 mg/mL (≈ 34.1 µM). For the same molecule, the “Solubility 24 h” value [3, 9] was 0.015 mg/mL (≈ 34.1 µM), the “pH 0.5 h” value [3, 10] was 6.47 and the “pH 2 h” value [3, 10] was 6.39. The “pH 24 h” value [3, 10] was 6.44, the “XRPD 0.5 h” value ([3]; FeSSIF) was “Unchanged” and the “XRPD 2 h” value ([3]; FeSSIF) was “Unchanged”. The “XRPD 24 h” value ([3]; FeSSIF) was “Unchanged”, the “Solubility 0.5 h” value [3, 11] was 0.082 mg/mL (≈ 186 µM) and the “Solubility 2 h” value [3, 11] was 0.083 mg/mL (≈ 189 µM). For the same molecule, the “Solubility 24 h” value [3, 11] was 0.080 mg/mL (≈ 182 µM), the “pH 0.5 h” value [3, 12] was 5.01 and the “pH 2 h” value [3, 12] was 4.98. For the same molecule, the “pH 24 h” value [3, 12] was 4.82, the “XRPD 0.5 h, 2 h, 24 h” value ([3]; SGF) was “Clear” and the solubility ([3]; SGF, 37 °C, pH 1.23, simulated gastric fluid, thermodynamic from solid, SGF, 37° C., read-out: solubility in SGF) was > 5000 µg/mL. The “Solubility 0.5 h, 2 h, 24 h” value ([3]; SGF, initial pH 1.23, 37° C.) was >5 mg/mL, the “pH 0.5 h” value ([3]; SGF, initial pH 1.23, filtrate) was 1.33 and the “pH 2 h” value ([3]; SGF, initial pH 1.23, filtrate) was 1.20. The “pH 24 h” value ([3]; SGF, initial pH 1.23, filtrate) was 1.28, the “XRPD 0.5 h” value ([3]; Water) was “Unchanged” and the “XRPD 2 h” value ([3]; Water) was “Unchanged”. The “XRPD 24 h” value ([3]; Water) was “Unchanged”, the “Solubility 0.5 h” value ([3]; Water, initial pH 5.41, 37° C.) was 0.011 mg/mL (≈ 25 µM) and the “Solubility 2 h” value ([3]; Water, initial pH 5.41, 37° C.) was 0.011 mg/mL (≈ 25 µM). For the same molecule, the “Solubility 24 h” value ([3]; Water, initial pH 5.41, 37° C.) was 0.010 mg/mL (≈ 22.7 µM), the “pH 0.5 h” value [3, 13] was 5.93 and the “pH 2 h” value [3, 13] was 6.54. The “pH 24 h” value [3, 13] was 7.54, the “crystal form after solubility test” value ([3]; XRPD of filter cake) was “remained unchanged” and the “solubility in the other media (in words)” value ([3]; media other than SGF (FaSSIF, FeSSIF, water), 37° C.) was “low solubility”. For the same molecule, the “relative stability of the crystal form” value [4] was “more stable anhydrate at RT to 80 °C; also recorded: Stable below 80 °C”, the solubility ([5]; DCM/MeOH (4/1, v/v), DCM/MeOH (4/1)) was > 50 mg/mL and the solubility ([5]; most solvent systems) was < 5 mg/mL. For the same molecule, the solubility at 4 h [6, 14] was 2460 µg/mL (≈ 5600 µM), the solubility at 24 h [6, 14] was 784 µg/mL (≈ 1780 µM) and the solubility at 4 h [6, 15] was 83 µg/mL (≈ 189 µM). It also gave a solubility at 24 h [6, 15] of 84 µg/mL (≈ 191 µM), a solubility at 4 h [6, 16] of 8 µg/mL (≈ 18.2 µM) and a solubility at 24 h [6, 16] of 8 µg/mL (≈ 18.2 µM). For the same molecule, the solubility at 4 h [6, 17] was 14 µg/mL (≈ 31.8 µM), the solubility at 24 h [6, 17] was 14 µg/mL (≈ 31.8 µM) and the solubility ([6]; pH 1, simulated gastric fluid, thermodynamic from solid, 0.1 N HCl, 25° C., read-out: solubility (highest)) was > 40 mg/mL. The “pH 4 h” value [6, 18] was 2.48, the “pH 24 h” value [6, 18] was 2.38 and the “XRPD 4 h” value ([6]; pH 1.0 buffer) was “Form I”. The “XRPD 24 h” value ([6]; pH 1.0 buffer) was “Form I”, the “form change of the solid” value ([6]; pH 3 buffer at 24 h) was “converted into Citrate Form I” and the “pH 4 h” value [6, 19] was 3.30. For the same molecule, the “pH 24 h” value [6, 19] was 3.45, the “XRPD 4 h” value ([6]; pH 3.0 buffer) was “Form I” and the “XRPD 24 h” value ([6]; pH 3.0 buffer) was “Citrate Form I”. The “pH 4 h” value [6, 20] was 4.88, the “pH 24 h” value [6, 20] was 4.90 and the “XRPD 4 h” value ([6]; pH 5.0 buffer) was “Form I”. The “XRPD 24 h” value ([6]; pH 5.0 buffer) was “Form I”, the “solubility (in words)” value ([6]; pH 6.8 and 9 buffers, 25° C.) was “low” and the “pH 4 h” value [6, 21] was 6.75. For the same molecule, the “pH 24 h” value [6, 21] was 6.79, the “XRPD 4 h” value ([6]; pH 6.8 buffer) was “Form I” and the “XRPD 24 h” value ([6]; pH 6.8 buffer) was “Form I”. The “pH 4 h” value [6, 22] was 9.16, the “pH 24 h” value [6, 22] was 9.15 and the “XRPD 4 h” value ([6]; pH 9.0 buffer) was “Form I”. The “XRPD 24 h” value ([6]; pH 9.0 buffer) was “Form I”, the solubility at 4 h [6, 23] was > 44400 µg/mL and the solubility at 24 h [6, 23] was > 44500 µg/mL. The “form change of the solid” value ([6]; the other conditions (other buffers and time points)) was “remained unchanged”, the “hygroscopicity (in words)” value [7] was “slightly hygroscopic” and the “hygroscopicity (in words)” value ([7]; listed as Form I) was “slightly hygroscopic”. For the same molecule, the “crystal form after DVS test” value ([7]; XRPD after DVS) was “remained unchanged”, the water uptake ([7]; at 80% RH) was 0.5% and the water uptake ([7]; at 80% RH, listed as Form I) was 0.5% and < 1%. The water uptake ([7]; at 90% RH) was 0.6%, the water uptake ([7]; at 90% RH, listed as Form I) was 0.6% and the “XRPD - 7 d” value ([8]; 40° C./75% RH (open), 7 days) was “Unchanged”. For the same molecule, the “physical and chemical stability” value ([8]; 60° C. (capped) and 40° C./75% RH (open), 7 days) was “physically and chemically stable”, the “XRPD - 7 d” value ([8]; 60° C. (capped), 7 days) was “Unchanged” and the “Initial Purity” value ([8]; before storage, HPLC) was 99.16 area %.
